# Data published in patent US20180207228A1, “PEPTIDE COMBINATIONS AND USES THEREOF FOR TREATING GRASS ALLERGY” (ALK-Abelló A/S, priority 2015, published 2018).
# Where no end group is shown, it is not given here.
# Key:
# Format in all cases: cell-based, human
# [1] = test system: allergen specific T cells; assay: T cell proliferation assay (72 h) on donor derived T cell lines (TCL02/TCL03); conditions: for Proliferation % donor coverage (TCL-02 DK1): T cell lines TCL-02 DK1, 30 donors, hit criteria SI>=2, CPM>=1000; for Proliferation strength (TCL-02 DK1): T cell lines TCL-02 DK1, strength of response (average relative magnitude)
# In short: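 Overlapping 20-mer and selected 15-mer grass allergen peptides were screened for proliferation using TCL02 (day 24) or TCL03 (day 34) lines. Lines came from grass-allergic donors' CD8-depleted PBMCs, primed with natural allergen mix and expanded with irradiated autologous or allogeneic APCs, PHA-P 0.5 μg/ml and rIL-2.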
# [2] = test system: release of IL-5 upon T cell activation; assay: Fluorospot assay, IL-5 release (DK1-TCL01, US1-TCL01); conditions: head prints TCL-02 DK1; text: 25 TCL-01 DK1 lines
# Description: (§1) Grass allergic donors were recruited (cohort DK1 including 30 grass allergic individuals, DK2 including 24 grass allergic individuals and US1 including 15 grass allergic individuals). PBMCs were isolated from freshly drawn heparinized blood by gradient centrifugation on lymphoprep (Nycomed, Norway), washed twice and re-suspended in RPMI 1640 medium with HEPES and ultraglutamine (Cambrex, Belgium) supplemented with 5% v/v human AB-serum (Cambrex, Belgium), 100 units/ml penicillin, and 0.1 mg/ml streptomycin (Sigma, St Louis, USA) (referred to as 5% AB-medium). Aliquots of the isolated PBMCs were frozen and were thawed later to stimulate the T cell lines. Additionally either fresh or thawed PBMCs were used as antigen presenting cells (APCs) in the proliferation assay as described later. In some cases the PBMCs were freezed at this stage and thawed later on to continue the experiment as described in the following. The isolated PBMCs (fresh or thawed) were CD8 depleted by MACS magnetic depletion according to the manufacturer's instructions (Miltenyi Biotec, Bergisch Gladbach, Germany). On day 0 the CD8-depleted PBMCs (2×10^6/ml) were stimulated in 1 ml bulk cultures in AB medium in 24 well plates (Nunc, Denmark) with the mixture of natural allergens: nPhl p 1 (0.5 μg/ml), mix of nPhl p 2/nPhl p 3 (1.0 μg/ml), nPhl p 4 (0.5 μg/ml), nPhl p 5 (0.5 μg/ml) and nCyn d 1 (0.5 μg/ml). Amount of 65 U, 30 U, and 30 U recombinant IL-2 (Chiron, USA) were added per well at days 5, 6 and 7, respectively. On day 14 cells were harvested to obtain T cell line generation 01 (referred to as TCL01).
# (§2) On day 14 the T cells of TCL01 were isolated, washed and counted. The isolated T cells of TCL01 generation were used to perform either ELISpot or Fluorospot assay. TCL01 were further re-stimulated as described in the next paragraph for use in T cell proliferation. The aliquot for use in T cell proliferation was re-stimulated on day 14 to carry out proliferation experiment at day 24.
# (§3) In the Fluorospot assays, release of IL-5 and IFN-γ upon T cell activation (of donor derived lines DK1-TCL01, and US1-TCL01) with a peptide or a peptide-mix described herein was measured by Fluorospot assay kit (Mabtech AB) and procedures were followed as per manufacturer's instructions. Briefly anti-human IL-5 and anti-human IFN-γ coated 96 well plates were obtained and blocked with 10% AB serum in RPMI. The plates were washed thoroughly and the isolated T cells were plated and incubated with either single peptides (2 μg/ml) or peptide mixes (2 μg/ml), or allergens nPhl p1, nPhl p 2, nPhl p 3, nPhl p 4, nPhl p 5, Cyn d 1 at 2 μg/ml for 20 hrs/37° C./5% CO2. After the incubation time the cells were removed by emptying the plate. Detection antibodies 7-B6-1-FS-FITC (1:200) and 5A10-biotin (2 μg/ml) were diluted in PBS-0.1% BSA and were added to the plate and incubated for 2 hours/room temperature (RT). There-after the plates were washed and anti-FITC-green (1:200) and SA-Red (1:200) diluted in PBS±0.1% BSA were added and incubated for 1 hour/RT/dark. After the incubation period the plates were washed, emptied and fluorescence enhancer solution was added for 15 minutes/RT. Plates were emptied, fluorescence enhancer solution was firmly tapped out against a clean paper, soft plastic under drain was removed and the plates were left in the dark to dry. The counts were inspected in a fluorospot reader. Hit criteria for peptide were 20 SFCs/10^6 PBMCs, p≤0.05 and poisson 0.05 stimulated cells compared to background, and a stimulation index (SI)≥2.
# (§4) The peptides were identified as hits if they fulfilled the criteria as mentioned below where stimulation index (SI) value of 2 or above, Poisson value=<0.05 and P value=<0.05, SFC>=20 (IL-5/IFN-g)/10^6 cells and CPM>=1000 (proliferation) SI can be defined as [[…]/medium control] in a Fluorospot assay and [counts per minute (cpm)/medium control] in a proliferation assay.
# [3] = test system: release of IFN-γ upon T cell activation; assay: Fluorospot assay, IFN-γ release (DK1-TCL01, US1-TCL01); conditions: head prints TCL-02 DK1; 17 TCL-01 DK1 lines
# Description: as §1, §2, §3, §4
Compound,Proliferation % donor coverage (TCL-02 DK1) [1] [%],Proliferation strength (TCL-02 DK1) [1],IL-5-Fluorospotr % donor coverage (TCL-02 DK1) [2] [%],IFN-gamma % donor coverage (TCL-02 DK1) [3] [%]
CSCC[C@H](N)C(=O)N[C@@H](CCCNC(=N)N)C(=O)N[C@@H](CC(N)=O)C(=O)N[C@H](C(=O)N[C@@H](Cc1ccccc1)C(=O)N[C@@H](CC(=O)O)C(=O)N[C@@H](CC(=O)O)C(=O)N[C@H](C(=O)N[C@H](C(=O)N1CCC[C@H]1C(=O)N[C@@H](C)C(=O)N[C@@H](CC(=O)O)C(=O)N[C@@H](Cc1ccccc1)C(=O)N[C@@H](CCCCN)C(=O)N[C@H](C(=O)O)C(C)C)C(C)C)C(C)C)C(C)C [compound 126],37.93,0.40,8.33,0.00
EIKSTKPEASSGEPVVVHIT-OH [compound 3],36.67,3.40,8.00,8.00
AEVELRQHGSEEWEPLTKKG-OH [compound 43],3.33,0.70,4.00,0.00
EVELREHGSDEWVAMTKGEG-OH [compound 33],0.00,0.00,0.00,0.00
KVPPGPNITATYGDKWLDAK-OH [compound 15],3.33,0.50,0.00,0.00
AFGAMAKKGDEQKLRSAGEL-OH [compound 22],26.67,2.10,4.00,15.00
GNTPIFKSGRGSGSSFEIKS-OH [compound 20],13.33,1.40,0.00,0.00
RGAAPDDHGGASGYKDVDKP-OH [compound 92],3.33,0.60,0.00,0.00
KEDFLGSLVKEIPPRLLYAK-OH [compound 45],20.00,4.00,4.00,0.00
TPFPHRKGVLFNIQYVNYWF-OH [compound 50],43.33,6.70,28.00,8.00
GGASGYKDVDKPPFSGMTGS-OH [compound 18],16.67,2.30,0.00,0.00
VPKVTFTVEKGSNEKHLAVL-OH [compound 30],3.33,0.40,0.00,0.00
LSYRSLQPETFAVVDLNKMR-OH [compound 53],10.00,1.20,0.00,4.00
FAVVDLNKMRAVWVDGKART-OH [compound 47],40.00,6.20,0.00,8.00
GRRHSVRIRVRSGGHDYEGL-OH [compound 51],10.00,0.40,0.00,0.00
EQKLIEKINAGFKAALAAAA-OH [compound 62],36.67,6.20,4.00,0.00
AMSEAQKAAKPAAAATATAT-OH [compound 86],10.00,1.40,0.00,0.00
TPDKLTGPFTVRYTTEGGTK-OH [compound 26],13.33,2.00,24.00,4.00
AVKPAAEEVKVIPAGELQVI-OH [compound 81],20.00,2.60,0.00,0.00
YIITPTNVSHIQSAVVSGRR-OH [compound 46],27.00,1.00,0.00,0.00
AEGLSGEPKGAAESSSKAAL-OH [compound 77],3.33,0.40,0.00,0.00
IPKVPPGPNITATYGDKWLD-OH [compound 14],3.33,0.40,0.00,0.00
TALKKAITAMSEAQKAAKPA-OH [compound 85],20.00,2.80,4.00,0.00
KSSKPLVGPFNFRFMSKGGM-OH [compound 39],13.33,1.10,12.00,4.00
ELTLQFRRVKSKYPSGTKIT-OH [compound 102],33.33,4.70,4.00,8.00
HGSEEWEPLTKKGNVWEVKS-OH [compound 37],26.67,3.20,4.00,0.00
KDKWIELKESWGAIWRIDTP-OH [compound 10],60.00,9.80,24.00,4.00
ASGYKDVDKPPFDGMTASGN-OH [compound 93],16.67,2.40,0.00,0.00
